# Values quoted from earlier work in patent US20090221604A1, “Thiazole Compounds and Their Use as PGD2 Antagonists” (priority 2005, published 2009).
# Tests used:
# guinea pig = details: after oral dosing
# [1] = system: asthma model in the guinea pig
# [2] = system: allergic conjunctivitis model
structure (smiles),measurement,setting,value
CC1(C)[C@H]2C[C@H](C/C=C\CCCC(=O)O)[C@@H](NC(=O)c3csc4ccc(O)cc34)[C@@H]1C2 [Example S-5751],"early (sneezing, mucosal plasma exudation, nasal blockage) and late (eosinophil infiltration) phase nasal responses",guinea pig,inhibited
same,antigen-induced eosinophil infiltration into the lung,[1],alleviated
same,allergen-induced plasma exudation in the conjunctiva,[2],alleviated
